Assay results published in patent publication US11713338B2, “Cyclic peptides multimers targeting α-4-β-7 integrin” (priority 2016, dated 2023).

Legend:
[1] = biological target: T1, recombinant integrin α4β7 (Homo sapiens, UniProt P13612+P26010, DEL724-798); test: Integrin α4β7—MAdCAM-1 ELISA competition assay; format: binding; details: for ELISA Assay Ratio b1/b7: ratio of a4b1 to a4b7 ELISA IC50; for IC50: read-out: ELISA a4b7 Assay IC50
T1 construct: purchased R&D Systems 5397-A3-050
T1 sequence (P13612 34-970 limits assumed): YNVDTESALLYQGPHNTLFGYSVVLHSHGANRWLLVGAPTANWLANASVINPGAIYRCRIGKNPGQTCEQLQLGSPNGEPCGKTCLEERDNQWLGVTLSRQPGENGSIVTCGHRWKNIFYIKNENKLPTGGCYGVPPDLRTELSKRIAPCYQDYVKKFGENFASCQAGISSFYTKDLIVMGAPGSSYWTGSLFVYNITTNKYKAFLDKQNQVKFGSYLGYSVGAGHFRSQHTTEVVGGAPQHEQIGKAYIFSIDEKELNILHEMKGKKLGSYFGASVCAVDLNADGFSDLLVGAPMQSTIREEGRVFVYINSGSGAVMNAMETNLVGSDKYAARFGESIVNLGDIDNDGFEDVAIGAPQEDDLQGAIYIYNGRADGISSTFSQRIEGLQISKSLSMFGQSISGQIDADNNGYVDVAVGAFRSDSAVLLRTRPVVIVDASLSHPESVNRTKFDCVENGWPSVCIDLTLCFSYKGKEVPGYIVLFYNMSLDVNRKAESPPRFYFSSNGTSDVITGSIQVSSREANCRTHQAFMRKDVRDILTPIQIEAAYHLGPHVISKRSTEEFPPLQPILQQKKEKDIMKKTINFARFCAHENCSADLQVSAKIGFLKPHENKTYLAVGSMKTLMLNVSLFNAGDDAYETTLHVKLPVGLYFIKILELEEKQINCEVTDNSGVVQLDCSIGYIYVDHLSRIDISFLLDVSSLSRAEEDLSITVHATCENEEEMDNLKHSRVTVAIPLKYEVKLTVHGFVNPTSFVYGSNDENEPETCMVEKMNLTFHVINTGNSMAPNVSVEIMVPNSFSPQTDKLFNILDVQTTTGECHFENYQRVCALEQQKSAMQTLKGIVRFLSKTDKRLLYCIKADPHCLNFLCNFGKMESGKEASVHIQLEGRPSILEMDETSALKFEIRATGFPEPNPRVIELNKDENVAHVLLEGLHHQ
T1 sequence (P26010 20-723 limits assumed): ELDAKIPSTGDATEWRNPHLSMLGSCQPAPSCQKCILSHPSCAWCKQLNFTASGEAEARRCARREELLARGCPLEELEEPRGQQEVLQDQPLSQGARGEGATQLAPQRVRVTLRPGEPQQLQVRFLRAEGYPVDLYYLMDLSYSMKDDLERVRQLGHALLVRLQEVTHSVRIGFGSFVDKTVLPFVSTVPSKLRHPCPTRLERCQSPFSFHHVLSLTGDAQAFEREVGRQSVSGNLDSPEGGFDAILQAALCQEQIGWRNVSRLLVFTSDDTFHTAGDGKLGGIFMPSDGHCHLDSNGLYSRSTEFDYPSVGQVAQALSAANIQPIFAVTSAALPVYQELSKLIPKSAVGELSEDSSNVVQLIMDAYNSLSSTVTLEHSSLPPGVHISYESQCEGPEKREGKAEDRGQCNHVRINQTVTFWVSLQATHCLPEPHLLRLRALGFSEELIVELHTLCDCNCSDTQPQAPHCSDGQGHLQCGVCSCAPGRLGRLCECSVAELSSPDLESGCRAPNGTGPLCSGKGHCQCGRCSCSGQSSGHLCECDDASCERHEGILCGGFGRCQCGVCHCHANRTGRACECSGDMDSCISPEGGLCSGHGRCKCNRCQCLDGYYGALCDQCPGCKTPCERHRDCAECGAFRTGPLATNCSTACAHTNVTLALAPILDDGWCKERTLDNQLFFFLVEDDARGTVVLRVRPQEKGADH
Protocol: Integrin α4β7—MAdCAM-1 ELISA Competition Assay
The plate was incubated at 40C overnight. […] The plate was then incubated for 1 hour at room temperature. The plate was washed three times with wash buffer (50 mM Tris, 100 mM NaCl, 1 mM MnCl2, 0.05% Tween). To each well, 50 μl of compound diluted in assay buffer was added by transfer from a compound serial dilution plate. […] The plate was incubated at room temperature with shaking (300 rpm) for 2 hours to reach binding equilibrium. […] The plate was incubated at room temperature for 1 hour under agitation.

[2] = biological target: T2, recombinant integrin α4β1 (Homo sapiens, UniProt P05556+P13612); test: Integrin α4β1—VCAM-1 competition ELISA; format: binding; details: read-out: ELISA a4b1 Assay IC50
T2 construct: purchased R&D Systems 5397-A3-050
T2 sequence (P05556 21-728 limits assumed, one chain of several): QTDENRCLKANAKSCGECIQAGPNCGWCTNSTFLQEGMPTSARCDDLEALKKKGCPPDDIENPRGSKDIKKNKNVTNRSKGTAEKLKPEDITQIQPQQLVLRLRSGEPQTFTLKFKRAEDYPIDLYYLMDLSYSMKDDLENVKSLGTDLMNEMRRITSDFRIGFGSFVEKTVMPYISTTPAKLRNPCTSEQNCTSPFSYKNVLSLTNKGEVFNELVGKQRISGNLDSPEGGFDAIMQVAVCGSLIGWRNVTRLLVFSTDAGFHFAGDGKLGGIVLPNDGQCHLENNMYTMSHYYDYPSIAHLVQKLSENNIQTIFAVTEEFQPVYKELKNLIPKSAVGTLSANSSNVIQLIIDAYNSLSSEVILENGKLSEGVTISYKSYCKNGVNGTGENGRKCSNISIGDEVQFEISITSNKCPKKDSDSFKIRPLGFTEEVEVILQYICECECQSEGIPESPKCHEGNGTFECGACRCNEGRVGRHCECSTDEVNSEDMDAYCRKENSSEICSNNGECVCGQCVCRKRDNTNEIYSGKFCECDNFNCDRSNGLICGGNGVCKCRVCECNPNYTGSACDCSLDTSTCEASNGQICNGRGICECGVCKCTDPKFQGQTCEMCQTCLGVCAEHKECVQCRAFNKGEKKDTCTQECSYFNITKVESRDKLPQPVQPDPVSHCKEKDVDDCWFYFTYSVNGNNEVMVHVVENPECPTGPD
Protocol: Integrin α4β1—VCAM-1 Competition ELISA
The plate was incubated at 4° C. overnight. […] The plate was then incubated for 1 hour at room temperature. The plate was washed three times with wash buffer (50 mM Tris, 100 mM NaCl, 1 mM MnCl2, 0.05% Tween). To each well, 50 μl of compound diluted in assay buffer was added by transfer from a compound serial dilution plate. […] The plate was incubated at room temperature with shaking (300 rpm) for 2 hours to reach binding equilibrium. Then the plate was washed three times in wash buffer and 100 μl anti-human IgG Fc specific-HRP (Abcam, Ab97225) diluted at 1:2000 in assay buffer was added to each well. The plate was incubated at room temperature for 1 hour under agitation.

Compound	ELISA Assay Ratio b1/b7 [1]	IC50 [1]	IC50 [2]
CC(C)C[C@@H]1NC(=O)[C@H]2CCCCN2C(=O)[C@H](Cc2ccc(-c3ccccc3)cc2)NC(=O)[C@@H]2CCCN2[C@H](C(=O)NC(C)(C)C)[C@H](C)NC(=O)[C@H]([C@@H](C)O)NC(=O)[C@H](CC(=O)O)NC1=O [Compound 138]	5.0	0.024 µM	0.118 µM
CC(C)C[C@@H]1NC(=O)[C@@H]2C[C@@H](O)CN2C(=O)[C@H](Cc2ccc(O)cc2)NC(=O)[C@@H]2CCCN2[C@H](C(=O)NC(C)(C)C)[C@H](C)NC(=O)[C@H]([C@@H](C)O)NC(=O)[C@H](CC(=O)O)NC1=O [Compound 139]	0.7	0.1 µM	0.073 µM
CC(C)C[C@@H]1NC(=O)[C@H]2C[C@@H](O)CN2C(=O)[C@H](Cc2ccc(O)cc2)NC(=O)[C@@H]2CCCN2[C@H](C(=O)NC(C)(C)C)[C@H](C)NC(=O)[C@H]([C@@H](C)O)NC(=O)[C@H](CC(=O)O)NC1=O [Compound 141]	2.0	0.019 µM	0.036 µM
CC(C)C[C@@H]1NC(=O)[C@H]2CCCCN2C(=O)[C@H](Cc2cccc3ccccc23)NC(=O)[C@@H]2CCCN2[C@H](C(=O)NC(C)(C)C)[C@H](C)NC(=O)[C@H]([C@@H](C)O)NC(=O)[C@H](CC(=O)O)NC1=O [Compound 143]	2.1	0.033 µM	0.068 µM
C[C@@H]1NC(=O)[C@H]([C@@H](C)O)NC(=O)[C@H](CC(=O)O)NC(=O)[C@H](CC(C)(C)C)NC(=O)[C@H]2CCCCN2C(=O)[C@H](Cc2ccc(O)cc2)NC(=O)[C@@H]2CCCN2[C@@H]1C(=O)NC(C)(C)C [Compound 150]	8.2	0.054 µM	0.447 µM
CC(C)C[C@@H]1NC(=O)[C@H]2C[C@H](O)CN2C(=O)[C@H](Cc2cscn2)NC(=O)[C@@H]2CCCN2[C@H](C(=O)NC(C)(C)C)[C@H](C)NC(=O)[C@H]([C@@H](C)O)NC(=O)[C@H](CC(=O)O)NC1=O [Compound 151]	4.1	0.053 µM	0.218 µM
CC(C)C[C@@H]1NC(=O)[C@H]2C[C@H](O)CN2C(=O)[C@H](Cc2ccc(CN)cc2)NC(=O)[C@@H]2CCCN2[C@H](C(=O)NC(C)(C)C)[C@H](C)NC(=O)[C@H]([C@@H](C)O)NC(=O)[C@H](CC(=O)O)NC1=O [Compound 152]	13.2	0.102 µM	1.35 µM
CC[C@H](C)[C@@H]1NC(=O)[C@H](CC(=O)O)NC(=O)[C@H](CC(C)C)NC(=O)[C@@H](CCCCN)N(C)C(=O)[C@H](Cc2ccc(O)cc2)NC(=O)[C@@H]2CCCN2[C@H](C(=O)NC(C)(C)C)[C@H](C)NC1=O [Compound 154]	22.8	0.117 µM	2.66 µM
CC(C)C[C@@H]1NC(=O)[C@@H](CCCNC(=N)N)N(C)C(=O)[C@H](Cc2ccc(O)cc2)NC(=O)[C@@H]2CCCN2[C@H](C(=O)NC(C)(C)C)[C@H](C)NC(=O)[C@H]([C@@H](C)O)NC(=O)[C@H](CC(=O)O)NC1=O [Compound 157]	55.3	0.067 µM	3.71 µM
C=CCOc1ccc(C[C@@H]2NC(=O)[C@@H]3CCCN3[C@H](C(=O)NC(C)(C)C)[C@H](C)NC(=O)[C@H]([C@@H](C)O)NC(=O)[C@H](CC(=O)O)NC(=O)[C@H](CC(C)C)NC(=O)CNC2=O)cc1 [Compound 163]	11.0	0.126 µM	1.39 µM
C=CCOc1ccc(C[C@@H]2NC(=O)[C@@H]3CCCN3[C@H](C(=O)NC(C)(C)C)[C@H](C)NC(=O)[C@H]([C@@H](C)O)NC(=O)[C@H](CC(=O)O)NC(=O)[C@H](CC(C)C)NC(=O)[C@@H](C(C)C)NC2=O)cc1 [Compound 166]	7.7	0.179 µM	1.38 µM
CC(C)C[C@@H]1NC(=O)CN(C)C(=O)[C@H](Cc2csc(-c3ccccn3)n2)NC(=O)[C@@H]2CCCN2[C@H](C(=O)NC(C)(C)C)[C@H](C)NC(=O)[C@H]([C@@H](C)O)NC(=O)[C@H](CC(=O)O)NC1=O [Compound 179]	15.2		2.66 µM
CC(C)C[C@@H]1NC(=O)C[C@H](CCCCN)NC(=O)[C@H](CC2CCCCC2)NC(=O)[C@@H]2CCCN2[C@H](C(=O)NC(C)(C)C)[C@H](C)NC(=O)[C@H]([C@@H](C)O)NC(=O)[C@H](CC(=O)O)NC1=O [Compound 210]	16.0	0.072 µM	1.15 µM
CC(C)C[C@@H]1NC(=O)C[C@H](CCCCN)NC[C@H](Cc2ccc(CN)cc2)NC(=O)[C@@H]2CCCN2[C@H](C(=O)NC(C)(C)C)[C@H](C)NC(=O)[C@H]([C@@H](C)O)NC(=O)[C@H](CC(=O)O)NC1=O [Compound 218]	16.5	0.19 µM	3.13 µM
CC[C@H](C)[C@@H]1NC(=O)[C@H](CC(=O)O)NC(=O)[C@H](CC(C)C)NC(=O)C[C@H](CCCCN)NC(=O)[C@@H](Cc2ccc(CN)cc2)NC(=O)[C@@H]2CCCN2[C@H](C(=O)NC(C)(C)C)[C@H](C)NC1=O [Compound 253]	15.6	0.069 µM	1.09 µM
CC(C)C[C@@H]1NC(=O)C[C@H](CCCCN)NC(=O)[C@H](Cc2ccc(I)cc2)NC(=O)[C@@H]2CCCN2[C@H](C(=O)NC(C)(C)C)[C@H](C)NC(=O)[C@H]([C@@H](C)O)NC(=O)[C@H](CC(=O)O)NC1=O [Compound 260]	58.1	0.165 µM	9.56 µM
CC(C)C[C@@H]1NC(=O)C[C@H](CCCCN)NC(=O)[C@](C)(Cc2ccccc2)NC(=O)[C@@H]2CCCN2[C@H](C(=O)NC(C)(C)C)[C@H](C)NC(=O)[C@H]([C@@H](C)O)NC(=O)[C@H](CC(=O)O)NC1=O [Compound 263]	23.1	0.102 µM	2.35 µM
Cc1cccc(C)c1-c1cccc(C[C@@H]2NC(=O)[C@@H]3CCCN3[C@H](C(=O)NC(C)(C)C)[C@H](C)NC(=O)[C@H]([C@@H](C)O)NC(=O)[C@H](CC(=O)O)NC(=O)[C@H](CC(C)C)NC(=O)C[C@H](CCCCN)NC2=O)c1 [Compound 265]	46.2	0.039 µM	1.82 µM
Cc1cccc(C)c1-c1ccc(C[C@@H]2NC(=O)[C@@H]3CCCN3[C@H](C(=O)NC(C)(C)C)[C@H](C)NC(=O)[C@H]([C@@H](C)O)NC(=O)[C@H](CC(=O)O)NC(=O)[C@H](CC(C)C)NC(=O)C[C@H](CCCCN)NC2=O)cc1 [Compound 268]	24.6	0.076 µM	1.87 µM
COc1cccc(Cl)c1-c1ccc(C[C@@H]2NC(=O)[C@@H]3CCCN3[C@H](C(=O)NC(C)(C)C)[C@H](C)NC(=O)[C@H]([C@@H](C)O)NC(=O)[C@H](CC(=O)O)NC(=O)[C@H](CC(C)C)NC(=O)C[C@H](CCCCN)NC2=O)cc1 [Compound 269]	31.6	0.056 µM	1.76 µM
